“Also recorded” adds a separate entry of the source.
Experiments:
[1] = target: GFP-tagged CREB3L2-S1P- (full-length form with mutated S1P site) (UniProt Q70SY1)
[2] = target: T1, GFP-tagged H. sapiens CREB3L2, full-length form (UniProt Q70SY1)
T1 sequence: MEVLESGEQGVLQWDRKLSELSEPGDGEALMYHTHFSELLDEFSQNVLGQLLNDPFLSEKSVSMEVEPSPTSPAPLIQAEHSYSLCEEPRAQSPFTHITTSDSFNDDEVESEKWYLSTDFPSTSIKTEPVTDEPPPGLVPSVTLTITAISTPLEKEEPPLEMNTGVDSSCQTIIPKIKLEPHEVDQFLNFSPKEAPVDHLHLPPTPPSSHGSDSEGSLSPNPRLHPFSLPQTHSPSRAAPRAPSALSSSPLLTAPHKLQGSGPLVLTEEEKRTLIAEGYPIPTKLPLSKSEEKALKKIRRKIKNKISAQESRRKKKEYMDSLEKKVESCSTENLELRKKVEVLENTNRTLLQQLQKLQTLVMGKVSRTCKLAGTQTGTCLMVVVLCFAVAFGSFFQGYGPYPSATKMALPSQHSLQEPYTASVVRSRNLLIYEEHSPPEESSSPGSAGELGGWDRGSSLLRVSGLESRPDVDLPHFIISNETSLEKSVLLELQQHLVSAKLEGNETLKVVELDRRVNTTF

[3] = system: CREB3L2-ATF4 heterodimers; assay: Proximity ligation assay (PLA) of axonal CREB3L2-ATF4 heterodimers; format: cell-based, rat; settings: emetine 100 nM to axons, last 60 minutes of 12-hour Aβ42 protocol
Procedure: Hippocampi were dissected from embryonic day (E) 16-18 rat embryos obtained from pregnant Sprague-Dawley dams (Envigo). All animal procedures were approved by the Institutional Animal Care and Use Committee at Columbia University. Cell dissociation was performed using TripLE Express. Neurons (50,000-60,000 per microfluidic chamber) were plated on 0.1 mg ml^-1 poly-D-lysine (Millipore Sigma) and 2 μg ml^-1 laminin (Bio-Techne) coated substrates and grown in Neurobasal supplemented with 10% fetal bovine serum, 2 mM L-glutamine, 1 mM sodium pyruvate, and antibiotics (50 U ml^-1 penicillin-streptomycin). Tripartite microfluidic chambers were produced with Dow Corning Sylgard 184 Silicone Encapsulant Clear Kit (10:1 mix ratio; Ellsworth Adhesives) cured at […] for at least 4 hours following published protocols (Park et al. 2006; Desai et al. 2009). Chamber design incorporated two sets of 200-μm-long microgroove barriers to exclude crossing of cell bodies and dendrites (Taylor et al. 2005; […] et al. 2009). After 24 hours, medium was changed to Neurobasal containing 1×B27 and 2 mM L-glutamine. Subsequent medium changes (half volumes) were performed at DIV4 and thereafter every 3-5 days. To prevent glial cell proliferation, medium changes included 5-flurodeoxyuridine and uridine (final concentration […]; Millipore Sigma) after DIV4. […]

[4] = system: neurons; settings: Rodriguez et al., 2021; cited from earlier work
[5] = Schafer et al., 2016; cited from earlier work
[6] = system: rat hippocampal neurons; assay: RNA-seq of Aβ42-challenged neurons with dovitinib co-treatment; format: cell-based
Procedure: Basal expression levels were measured in vehicle-treated cells. DEGs identified in Aβ42 condition are compared against their expression values in neurons co-treated with dovinitib. Individual datapoints show fold-changes over baseline (log2-transformed) of n=2 biological replicates. Aβ42 and dovitinib were applied for 24 hours before RNA collection. […] FGF, fibroblast growth factor.
Prior to RNA collection, neuronal cultures were washed with ice-cold HBSS (Thermo Fischer) and lysed with TRIzol reagent (#15596026, Thermo Fisher) by scrapping. The reaction was allowed to proceed on ice for 5 minutes, at which point samples were centrifuged at 12,000 g and 4° C. and supernatants transferred to new tubes before a 1:1 (v/v) dilution with molecular biology-grade 100% ethanol (Millipore Sigma). The RNA extraction protocol was continued using the Direct-zol RNA MicroPrep kit (Zymo Research), in accordance to manufacturer's instructions, and included an on-column DNA digestion step with DNase I. RNA was eluted in 30 μl of water. RNA-seq library preparation and sequencing reactions were conducted at GENEWIZ, Inc. (South Plainfield, NJ, USA). RNA sequencing libraries were prepared using the NEBNext Ultra RNA Library Prep Kit for Illumina following manufacturer's instructions (NEB). Briefly, mRNAs were first enriched with oligo(dT) beads. […] The sequencing libraries were validated on an Agilent TapeStation (Agilent Technologies) and quantified using a Qubit 2.0 Fluorometer (Life Technologies) as well as quantitative PCR (KAPA Biosystems). […] RNA-seq sequencing data were processed and analyzed within the Galaxy web platform, using the public server at usegalaxy.org. First, library adapters and low-quality reads were removed using Trimmomatic (version 0.38) with the following settings: initial ILLUMINACLIP step to cut adapters and other Illumina-specific sequences from the reads, seedMismatches=2, palindromeClipThreshold=30, simpleClipThreshold=10, minAdapterLength=8, keepBothReads=True, AVGQUAL >20, SLIDINGWINDOW: windowSize=4 and requiredQuality=20, and MINLEN=50. […]

[7] = system: rat hippocampal neurons; assay: Neuronal viability (RealTime-Glo MT) after 48-hour Aβ42 stimulation; format: cell-based; settings: lentiviral delivery at DIV1; Aβ42 750 nM 48 hours; relative to wild-type neurons; Aβ42/vehicle ratios
Procedure: Plots show individual measurements and mean±SEM of n=3 biological replicates. For each background, data are presented as Aβ42/vehicle ratios. ATF4 aZIP: *P-value=0.0167; CREB3L2 aZIP: *P-value=0.0137; unpaired t-tests.
Specific aZIPs sequences were synthesized by Genewiz. CREB3L2 aZIP: 5′-[…]-3′. (SEQ ID NO: 68) ATF4 aZIP: 5′-[…]-3′. […] Lentiviral particles were delivered at DIV1, 24 hours post-dissection. Neuronal cultures were allowed to mature until DIV15 and treated with Aβ42 at 750 nM for 48 hours. Cell viability was assayed using RealTime-Glo MT Cell Viability Assay (Promega) following manufacturer's guidelines; reaction was allowed to proceed for 1 hour before taking luminescence readings (SpectraMax iD5, Molecular Devices). Also see FIGS. 34A-34D.

## site 2 protease (S2P)
[1]
  CREB3L2 proteolytic cleavage (western blot, coexpression in HEK293): Preventing S1P processing by eliminating its cleavage site does not impede S2P-mediated processing
[2]
  CREB3L2 proteolytic cleavage (western blot, coexpression in HEK293): Coexpression of S2P, but not S1P, together with full-length GFP-CREB3L2 in HEK293 cells is sufficient to promote the activation of CREB3L2

## CC[C@H]1CN2CCc3cc(OC)c(OC)cc3[C@@H]2C[C@@H]1C[C@H]1NCCc2cc(OC)c(OC)cc21 [emetine]
[3]
  Aβ42-induced upregulation of axonal CREB3L2-ATF4 heterodimers (PLA): completely prevented; also recorded: limited their association in axons to control levels

## site 1 protease (S1P)
[2]
  CREB3L2 proteolytic cleavage (western blot, coexpression in HEK293): Coexpression of S2P, but not S1P, together with full-length GFP-CREB3L2 in HEK293 cells is sufficient to promote the activation of CREB3L2

## CN1CCN(c2ccc3nc(-c4c(N)c5c(F)cccc5[nH]c4=O)[nH]c3c2)CC1 [dovitinib]
[4]
  toxicity to neurons: non-toxic
[5]
  crossing of the blood-brain barrier: can cross
[6]; 24-hour Aβ42 + dovitinib vs Aβ42
  number of genes surpassing 0.25 differences in head-to-head comparisons: 30
[6]; 24-hour Aβ42 + dovitinib, log fold-change, n=2
  number of Aβ42 DEGs (of 203) showing corrective shifts 0.10 with dovitinib co-treatment: 131
[6]; 24 hours, Aβ42 alone log fold-change 0.57, over vehicle baseline
  Vgf log fold-change [Aβ42+dovitinib]: 0.07

B1: ATF4 aZIP: dominant-negative acidic-ZIP peptide targeting ATF4, encoded by nucleotide SEQ ID NO: 69, delivered by lentivirus (protein)
peptide: MDYKDDDDKHMASMTGGQQMGRDPDLEQRAEELARENEELEKEAEELEQELAELTGECKELEKKNEALKEKADSLAKEIQYLKDLIEEVRKARGKKRVP
[7]
  cell viability in neurons exposed to Aβ42: significantly improved

B2: CREB3L2 aZIP: dominant-negative acidic-ZIP peptide targeting CREB3L2, encoded by nucleotide SEQ ID NO: 68, delivered by lentivirus (protein)
peptide: MDYKDDDDKHMASMTGGQQMGRDPDLEQRAEELARENEELEKEAEELEQELAELRKKVEVLENTNRTLLQQLQKLQTLVMGKVSRTCKLAGTQTGTCLMVVVL
[7]
  cell viability in neurons exposed to Aβ42: significantly improved

Source: patent US20250027085A1, “COMPOSITIONS AND METHODS FOR TREATING ALZHEIMER'S DISEASE UTILIZING A TRANSCRIPTIONAL MASTER REGULATOR OF THE RETROMER COMPLEX” (THE TRUSTEES OF COLUMBIA UNIVERSITY IN THE CITY OF NEW YORK, priority 2022, published 2025)
